# Reference: US10093706B2, “Dominant positive hnRNP-E1 polypeptide compositions and methods” (Indiana University Research and Technology Corporation, priority 2017, dated 2018)
# Values joined by “and” are separate entries in the source; they are usually repeats but may differ in a detail not shown here. Equal values may be shown once.
# Legend:
# [1] = biological target: hnRNP-E1 binding to folate receptor mRNA and hnRNP-E1 mRNA cis-element (Homo sapiens, UniProt Q15365); settings: physiologically relevant thiols; cited from earlier work
# hnRNP-E1 binding to folate receptor mRNA and hnRNP-E1 mRNA cis-element, sequence (Q15365 whole entry): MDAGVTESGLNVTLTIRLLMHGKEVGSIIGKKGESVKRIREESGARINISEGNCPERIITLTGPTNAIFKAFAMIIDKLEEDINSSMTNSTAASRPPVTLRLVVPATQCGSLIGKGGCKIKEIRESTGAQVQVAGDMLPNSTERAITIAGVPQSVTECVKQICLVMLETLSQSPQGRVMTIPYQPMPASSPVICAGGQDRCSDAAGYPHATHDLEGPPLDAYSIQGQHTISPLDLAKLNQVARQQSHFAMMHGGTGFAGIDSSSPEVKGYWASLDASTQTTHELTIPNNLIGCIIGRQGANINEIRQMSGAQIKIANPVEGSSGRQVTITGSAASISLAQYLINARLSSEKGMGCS
# [2] = biological target: T1, RNA-protein complexes of GST-hnRNP-E1 and 25-nt hnRNP-E1 mRNA cis-element (Homo sapiens, UniProt Q15365, A205V); experiment: Gel-shift assay: effect of thiols, iron and deferoxamine on RNA-protein complex formation; format: binding; settings: 100-μM thiol
# T1 construct: made in house; host or cells: Escherichia coli BL21
# T1 sequence (Q15365 whole entry A205V, one chain of several): as the sequence (Q15365 whole entry) above, with A205V counted along it
# hnRNP-E1 mRNA = experiment: In vitro translation of hnRNP-E1; format: biochemical, human; settings: agent added to translation mixture (4.1-mM ß-ME)
# Description: (§1) In vitro transcription-translation was carried out using the Linked SP6/T7 In Vitro Transcription/Translation Kit (Roche Applied Science) after addition of one of various targeted DNAs—pSPT18-25-hnRNP-E1 DNA, or Pst1-linearized plasmid pSPT18-folate receptor-α, or HPV16 L2 DNA, (0.5 μg/reaction)—to the transcription mix as described. In other experiments, the capacity for perturbing the interaction of hnRNP-E1 with the 25-nt hnRNP-E1 cis-element during in vitro translation was assessed in the presence of either scrambled oligonucleotides (5′-[…]-3′ SEQ ID NO:20) or specific antisense oligonucleotides (5′-[…]-3′ SEQ ID NO:21) generated against the 25-nt hnRNP-E1 mRNA cis-element (GenScript USA, Piscataway, N.J.).
# folate receptor-α mRNA = experiment: In vitro translation of folate receptor-α; format: biochemical, human
# Description: In vitro transcription-translation was carried out using the Linked SP6/T7 In Vitro Transcription/Translation Kit (Roche Applied Science) after addition of one of various targeted DNAs—pSPT18-25-hnRNP-E1 DNA, or Pst1-linearized plasmid pSPT18-folate receptor-α, or HPV16 L2 DNA, (0.5 μg/reaction)—to the transcription mix as described. In other experiments, the capacity for perturbing the interaction of hnRNP-E1 with the 25-nt hnRNP-E1 cis-element during in vitro translation was assessed in the presence of either scrambled oligonucleotides (5′-GCGTCGCTCGCTTCGCACGTGCGCC-3′ SEQ ID NO:20) or specific antisense oligonucleotides (5′-GGG AGC GAG CGG GCG GGA G-3′ SEQ ID NO:21) generated against the 25-nt hnRNP-E1 mRNA cis-element (GenScript USA, Piscataway, N.J.).
# [3] = biological target: T1, RNA-protein complexes of GST-hnRNP-E1 and 25-nt hnRNP-E1 mRNA cis-element; experiment: Gel-shift assay: effect of thiols, iron and deferoxamine on RNA-protein complex formation; format: binding; settings: fixed L-homocysteine
# Description: Other studies assessed the effect of iron(II) or iron(III) on homocysteine-induced RNA-protein interactions.
# Studies were conducted to evaluate the effect of iron(II) (as ferrous sulfate heptahydrate) or iron(III) (as ferric chloride hexahydrate) in modulating RNA-protein interactions during gel-shift assays in either the absence or presence of 10-mM glutathione. The iron preparation, either alone or with 50-μM of deferoxamine (DFO) to define the specificity of iron(II), was incubated first with glutathione and hnRNP-E1 before addition of other components of the reaction mixture. […] The samples were analyzed by PAGE and autoradiography overnight followed by densitometric analysis of the signals representing RNA-protein complexes.
# [4] = test system: newly synthesized [^35S]hnRNP-E1 in placental 1584-HF cells; experiment: Biosynthetic rate of hnRNP-E1 after oligonucleotide transfection into placental 1584-HF cells; format: cell-based, human; settings: oligonucleotide transfected into placental 1584-HF cells
# Excerpt: On the day before transfection, placental 1584-HF cells were trypsinized, counted, and plated in 6-well plates at 2×10^5 cells per well in 2.5-mL of MEM-HF medium, so that cells would be 70-80% confluent after overnight culture. Cells were then transfected with either wild-type, or scrambled DNA, or antisense DNA to 25-nt hnRNP-E1 cis-element using Lipofectamine 2000 DNA transfection reagent and the manufacturer's protocol. One well of cells was trypsinized and harvested on day-3 (2 days after transfection) as a control. Cells in the remaining 5 wells were starved of cysteine using cysteine-free MEM-HF for 4-h following which the rate of biosynthesis of hnRNP-E1 protein was determined in transfected cells by specifically immunoprecipitating and quantifying newly synthesized [^35S]hnRNP-E1.
# [5] = biological target: [^35S]25-nt hnRNP-E1 mRNA cis-element; experiment: Dissociation constant (KD) of GST-hnRNP-E1 or its mutant proteins for the 25-nt hnRNP-E1 mRNA cis-element; format: binding, human; settings: L-Homocysteine 0 μM
# Description: (§2) Methods for testing the ability of an engineered hnRNP-E1 variant polypeptide to bind to an RNA comprising the sequence of SEQ ID NO:6 are known in the art. Such methods include, but are not limited to, RNA electrophoretic mobility shift assays, as exemplified herein, RNA pull-down assays, and oligonucleotide-targeted RNase H protection assays. Such assays are conducted in the presence or absence of homocysteine to determine the RNA-binding dependence of any particular hnRNP-E1 polypeptide tested on the presence of homocysteine. […] Additional methods are outline in Tang et al. (“Incrimination of heterogeneous nuclear ribonucleoprotein E1 (hnRNP-E1) as a candidate sensor of physiological folate deficiency.” J Biol Chem. 2011; 286(45):39100-39115), which is incorporated herein in its entirety.
# (§3) Specific binding was determined by subtracting values of non-specific binding with GST from those of total binding with GST-hnRNP-E1; (however, in Table 1 and FIG. 6G, non-specific binding using bovine serum albumin (BSA) was subtracted from total binding to GST-hnRNP-E1 to determine specific binding). The KD was calculated from a Scatchard plot using GraphPad Prism 6 from GraphPad Software (San Diego, Calif.), as previously described in the art.
# [6] = biological target: [^35S]18-nt folate receptor-α mRNA cis-element; experiment: Dissociation constant (KD) of GST-hnRNP-E1 or its mutant proteins for the 18-nt folate receptor-α mRNA cis-element; format: binding, human; settings: L-Homocysteine 0 μM; listed as wild-type-like hnRNP-E1(G292A)-mutant
# Description: as §2, §3
# [7] = test system: 25-nt hnRNP-E1 mRNA cis-element; experiment: Gel-shift assay of hnRNP-E1 proteins with 25-nt hnRNP-E1 mRNA cis-element; format: binding, human; settings: absence of L-homocysteine
# Description: (§4) Parenthetically, there was no significant difference in RNA binding to GST-hnRNP-E1 by use of either 32P-RNA probes or 35S-labeled RNA probes used. Other studies assessed the effect of iron(II) or iron(III) on homocysteine-induced RNA-protein interactions.
# Recombinant GST-plasmid DNA, pGST-hnRNP-E1, pGST-hnRNP-E2, and related engineered variant plasmids were transformed into BL21 Escherichia coli from Novagen (Madison, Wis.). After induction by 1 mM isopropyl-1-thio-ß-D-galactopyranoside, the GST-hnRNP-E1 and engineered variant fusion proteins were individually purified using the B-PER GST Fusion Protein Purification Kit (Pierce, Rockford, Ill.). The eluted GST fusion proteins were dialyzed against 500 volumes of buffer to remove excess reducing reagents (such as dithiothreitol (DTT)) and assayed by SDS-PAGE and Western blots using anti-peptide hnRNP-E1 antiserum. Gel shift assays with target RNA were carried out as described.
# HPV16 L2 RNA = experiment: In vitro translation of HPV16 L2 protein; format: biochemical, Human Papillomavirus type 16; settings: after quenching excess ß-ME by NEM (2 mM)
# Description: as §1
# (§5) Construction of plasmids for generation of HPV16 L2 RNA, gel-shift and in vitro translation studies were carried as described with additional treatments shown in FIGS. 10A-10D
# [8] = test system: newly synthesized [^35S]hnRNP-E1 in placental 1584-HF cells; experiment: Biosynthetic rate of hnRNP-E1 after protein transfection into placental 1584-HF cells; format: cell-based, human; settings: protein transfected in placental 1584-HF cells
# Excerpt: (§6) Transfection of purified recombinant wild-type or various mutant hnRNP-E1 proteins into cells was achieved using the Xfect™ Protein Transfection Kit (Clontech, Mountain View, Calif.). Briefly, placental 1584-HF cells in 10-cm dishes at 70-80% confluence were transfected with 2.4-mL serum-free medium and Xfect Protein Transfection Reagent (1.2-mL) containing 20-μg of either wild-type hnRNP-E1-, or highest-affinity (HA)-hnRNP-E1(C293S)-mutant, or wild-type-like hnRNP-E1 (G292A)-mutant proteins and 2-μg of ß-galactosidase at 37° C. for 60-min. After cysteine-starvation for 4-h, an aliquot of cells were assessed for ß-galactosidase activity (to measure the efficiency of co-transfection of ß-galactosidase) and the remaining cells were pulsed with L-[^35S]cysteine (250-μCi) and assessed for specific [^35S]cysteine incorporated into folate receptor to determine the biosynthetic rate of this protein. A similar protocol was employed for analysis of newly synthesized [^35S]hnRNP-E1 using anti-hnRNP-E1 antiserum-coupled agarose and control agarose in order to derive values for specific [^35S]cysteine incorporated into hnRNP-E1 and thereby determine the biosynthetic rate of this protein.
# [9] = test system: newly synthesized [^35S]folate receptors in placental 1584-HF cells; experiment: Biosynthetic rate of folate receptors after protein transfection into placental 1584-HF cells; format: cell-based, human; settings: protein transfected in placental 1584-HF cells
# Excerpt: as §6
# [10] = test system: HPV16 L2 mRNA cis-element; experiment: Gel-shift assay of hnRNP-E1 proteins with HPV16 L2 mRNA; format: binding, Human Papillomavirus type 16; settings: absence of reducing agents; versus wild-type and G292A
# Description: as §4, §5
# [11] = listed as wild-type-like hnRNP-E1(G292A)-mutant
compound,measurement,setting,value
NC(CCS)C(=O)O (racemic) [DL-homocysteine],hnRNP-E1 activation and mRNA-binding,[1],far less
O[C@H](CS)[C@H](O)CS (racemic) [dithiothreitol],RNA-protein signals relative to L-homocysteine,[2],much stronger RNA-protein signals
N[C@H](CCS)C(=O)O [D-homocysteine],hnRNP-E1 activation and mRNA-binding,[1],did not have any effect
"N[C@@H](CS)C(=O)O [L-Cysteine, L-cysteine]",RNA-protein signals relative to L-homocysteine,[2],far weaker
same,hnRNP-E1 activation and mRNA-binding,[1],far less
CCN1C(=O)C=CC1=O [N-ethylmaleimide],effect on in vitro translation of hnRNP-E1,hnRNP-E1 mRNA,progressive reduction in the amount of hnRNP-E1 translated
same,basal translation of folate receptor-α mRNA in vitro,folate receptor-α mRNA; increasing NEM,diminished in a dose-dependent manner
N[C@@H](CCC(=O)N[C@@H](CS)C(=O)NCC(=O)O)C(=O)O [glutathione],RNA-protein signals relative to L-homocysteine,[2],no detectable signals
same,hnRNP-E1 activation and mRNA-binding,[1],far less
NC1CCSC1=O (stereo not shown) [homocysteine thiolactone],hnRNP-E1 activation and mRNA-binding,[1],far less
"O.O.O.O.O.O.[Cl-].[Cl-].[Cl-].[Fe+3] [iron(III), ferric chloride hexahydrate]",effect on RNA-complex formation,[3]; 10-mM glutathione,comparable dose-dependent reduction in RNA-complex formation
same,effect on formation of RNA-protein complexes,[3]; no glutathione,no such influence
CSCC[C@H](N)C(=O)O [methionine],RNA-protein signals relative to L-homocysteine,[2],no detectable signals
same,hnRNP-E1 activation and mRNA-binding,[1],did not have any effect
"OCCS [ß-ME, ß-mercaptoethanol]",RNA-protein signals relative to L-homocysteine,[2],much stronger RNA-protein signals
Antisense: antisense oligonucleotides (5′-GGG AGC GAG CGG GCG GGA G-3′ SEQ ID NO:21) against the 25-nt hnRNP-E1 mRNA cis-element (antisense GGGAGCGAGCGGGCGGGAG; chemistry not given here),effect on in vitro translation of hnRNP-E1,hnRNP-E1 mRNA,dose-dependent inhibition of translation of hnRNP-E1
same,[^35S]cysteine-hnRNP-E1 protein,[4],0.62 ± 0.02 b fmol/mg protein/h
same,[^35S]cysteine-hnRNP-E1 protein,[4]; listed as antisense oligonucleotides,0.62 fmol/mg protein/h
"GST-hnRNP-E1(G292A): control mutant, glycine-292 mutated to alanine; behaved similar to wild-type hnRNP-E1",Kd,[5],2.02 nM
same,Kd,[6],1.57 nM and 1.5 nM
same,RNA-protein gel-shift signal,[7],no RNA-protein gel-shift signals
same,HPV16 L2 protein signal,HPV16 L2 RNA,insignificant reduction of HPV16 L2 protein signal
same,[^35S]cysteine-hnRNP-E1,[8],1.03 ± 0.21 b fmol/mg protein/h
same,[^35S]cysteine-hnRNP-E1,[8]; [11],1.03 fmol/mg protein/h
same,[^35S]cysteine-folate receptor,[9],1.79 ± 0.13 b fmol/mg protein/h
same,[^35S]cysteine-folate receptor,[9]; [11],1.79 fmol/mg protein/h
Scrambled: scrambled oligonucleotides (5′-GCGTCGCTCGCTTCGCACGTGCGCC-3′ SEQ ID NO:20) (GCGTCGCTCGCTTCGCACGTGCGCC; chemistry not given here),effect on in vitro translation of hnRNP-E1,hnRNP-E1 mRNA,failed to quench the translation of hnRNP-E1
same,[^35S]cysteine-hnRNP-E1 protein,[4],1.01 ± 0.03 a fmol/mg protein/h
same,[^35S]cysteine-hnRNP-E1 protein,[4]; listed as scrambled-oligonucleotides,1.0 fmol/mg protein/h
hnRNP-E1(C54S)-mutant: hnRNP-E1 with cysteine-54 replaced by serine (SEQ ID NO:3),interaction with HPV16 L2 mRNA on gel-shift assays,[10],greater interaction
same,translation of folate receptor-α,folate receptor-α mRNA; presence of 2-mM NEM,maximally increased
